Results reported in US11938121B2, “Treatment of infections and biofilm formation using a cellulose synthase inhibitor” (Purdue Research Foundation, priority 2020, dated 2024).

Assays:
[1] = test system: Arabidopsis Col-0; experiment: Etiolated hypocotyl growth assay; assay type: in vivo, Arabidopsis thaliana; conditions: dark-grown Col-0, dosages examined
Method: (§1) To test the inhibitory effects of different chemicals on plant growth, wild-type Arabidopsis Col-0 plants were used. The seeds of plants used for growth assays or live cell imaging were sequentially sterilized with 50% bleach and 75% ethanol. After washing with sterilized water, the seeds were sown on ½-strength Murashige and Skoog (MS) medium supplemented with 3 mg/L of various chemicals. The plants were grown under continuous light of 130 μmol m^−2 s^−1 intensity illuminated by a Philips F25T8/TL841 25-watt bulb at 22° C. To quantify the inhibitory effects of different ES20 active analogs on the root growth of Arabidopsis wildtype, EMS mutants, and transgenic plants expressing mutated AtCESA6 in prc1-1 background, sterilized Col-0, mutants, and transgenic plants seeds were sown on gridded Petri plates containing ½-strength MS medium supplemented with different concentrations of ES20 analogs. The plates were placed in vertical orientation in the growth chamber for root measurement. The plates were scanned using an Epson Perfection V550 scanner after 7 days of growth, and the root lengths of plants were quantified using ImageJ software. […] The Petri dishes were scanned, and hypocotyl length was measured using ImageJ. Transgenic plants expressing fluorescence-tagged PIN2, PIP2a, HDEL, VHA-a1, and GOT1p were as reported previously (Xu and Scheres, Plant Cell, 2005, 17, 525-536).

[2] = test system: rice (Oryza sativa); experiment: Rice seedling root growth; assay type: in vivo; conditions: 20 μM
Source text: (§2) ES20 has broad spectrum inhibitory effect on the growth of both dicotyledonous and monocotyledonous plants (Huang and Zhang, Plant Signal Behav. 2020, 15, 1780039). We tested whether ES20-1 has stronger inhibitory effect on the growth of monocotyledon plants than ES20. We grew rice (Oryza sativa) and maize (Zea mays) seedlings on the same concentrations of ES20 and ES20-1 and compared their effects on growth.

[3] = test system: AtCESA6 (cesa6 alleles es20r1-es20r15); experiment: Root growth of EMS-induced cesa6 mutants es20r1-es20r15 on ES20 analogs; assay type: in vivo, Arabidopsis thaliana; conditions: compared with wild-type/control plants
Source text: A subset of active ES20 analogs likely target the catalytic domain of AtCESA6. […] Since ES20 and the nine active ES20 analogs share highly similar structures, we reasoned whether these active analogs target AtCESA6 as well. We therefore examined the growth of es20r1-es20r15 plants in the presence of nine active ES20 analogs compared to wild-type plants.
as §1, with “After washing with sterilized water, the seeds were sown on ½-strength Murashige and Skoog (MS) medium supplemented with 3 mg/L of various chemicals. The plants were grown under continuous light of 130 μmol m^−2 s^−1 intensity illuminated by a Philips F25T8/TL841 25-watt bulb at 22° C.” left out, “The plates were placed in vertical orientation in the growth chamber for root measurement.” left out

[4] = biological target: T1, GFP-CESA6c^P595S (Arabidopsis thaliana, UniProt Q94JQ6, P595S); experiment: MST assay with GFP-CESA6c^P595S; assay type: binding
T1 construct: We purified AtCESA6 central cytoplasmic domain carrying missense mutation P595S (CESA6c^P595S); made in house; host or cells: E. coli (inferred from the wild-type CESA6c construct that served as template)
Source text: To obtain the central cytosolic domain of AtCESA6 for the MST assay, we inserted the GFP coding sequence into the SacI and PstI restriction enzyme sites of the pRSF-Duet-1 vector (Huang et al., 2020). The GFP coding sequence was amplified from the pUBN-GFP-DEST vector. The sequence encoding the central cytosolic domain of CESA6 (CESA6c) was amplified from Col-0 cDNA and fused with GFP at the C-terminus. CESA6c construct was used as a template for creating CESA6c^P595S construct by site-directed mutagenesis. Protein purification was performed as previously described (Huang et al., 2020).
MST assays were carried out using a Monolith NT.115 (NanoTemper) machine at the Chemical Genomics Facility at Purdue University. […] The ES20-1 was dissolved in DMSO, and the final concentration of DMSO was 5% (vol/vol). MST standard capillaries were used to load the samples into the MST instrument. Triplicate reactions were performed for each test. The MST data were processed using MO. Affinity Analysis Version 2.3 software.

[5] = test system: maize (Zea mays); experiment: Maize seedling root growth; assay type: in vivo; conditions: 20 μM
Source text: as §2

[6] = test system: Arabidopsis Col-0; experiment: Arabidopsis Col-0 root growth and root swelling assay; assay type: in vivo, Arabidopsis thaliana; conditions: same dosage as ES20
Method: During the primary screening, we sowed Col-0 seeds on solid growth medium supplemented with 0.1% DMSO or 3 mg/L of different compounds with molar concentrations ranging from 5-10 μM. After 7 days of growth, we imaged the seedlings and evaluated the inhibitory effect of each chemical. Because disrupting cellulose biosynthesis by treating plants with a cellulose biosynthesis inhibitor or introducing mutations in the cellulose biosynthesis pathway often leads to root growth inhibition, root swelling, as well as ectopic lignin accumulation (Arioli et al., Science 1998, 279, 717-720; Huang et al., 2020), we first evaluated the ability of the compounds to inhibit root growth and cause root swelling. […] We grew wildtype seedlings on growth medium supplemented with DMSO (0.1%) or different concentrations of ES20 analogs for 7 days and quantified the crystalline cellulose content in root cell wall. […]
To test the inhibitory effects of different chemicals on plant growth, wild-type Arabidopsis Col-0 plants were used. […] To quantify the inhibitory effects of different ES20 active analogs on the root growth of Arabidopsis wildtype, EMS mutants, and transgenic plants expressing mutated AtCESA6 in prc1-1 background, sterilized Col-0, mutants, and transgenic plants seeds were sown on gridded Petri plates containing ½-strength MS medium supplemented with different concentrations of ES20 analogs. […]

Cc1ccccc1C(=O)NNC(=S)NC(=O)c1ccccc1 [ES20-1]
hypocotyl growth inhibition compared with ES20 [1]: inhibited hypocotyl growth more strongly than ES20 | rice root growth inhibition ([2]; 6-day-old seedlings): could inhibit the root growth | degree of rice root growth inhibition compared with ES20 ([2]; same dosage): much stronger than that of the same dosage of ES20 | sensitivity of es20r1-es20r15 mutants in growth [3]: All 15 mutants, which show reduced sensitivity to ES20, also showed reduced sensitivity | interaction with CESA6c^P595S [4]: interacts | maize root growth inhibition ([5]; 6-day-old seedlings): could inhibit the root growth | degree of maize root growth inhibition compared with ES20 ([5]; same dosage): much stronger than that of the same dosage of ES20 | root growth inhibition compared with ES20 [6]: more strongly inhibited root growth than ES20
